# Data taken from ChEMBL document CHEMBL5316357, “Discovery of Linvencorvir (RG7907), a Hepatitis B Virus Core Protein Allosteric Modulator, for the Treatment of Chronic HBV Infection” (J Med Chem, 2023).
# Assays:
# [1] = system: Hepatitis B virus; assay: Antiviral activity against HBV stably transfected in human HepG2.2.15 cells assessed as reduction of HBV DNA replication incubated for 5 days by q-PCR analysis; assay type: functional, organism-based; details: HepG2 2.2.15, 120 h
# [2] = Cytotoxicity against human HepDE19 cells assessed as reduction in cell viability incubated for 5 days by CCK-8 assay; assay type: functional; details: HepDE19, 120 h, time 5 day
# [3] = Oral bioavailability in rat plasma at 3 mg/kg; assay type: ADME, organism-based; details: in vivo, po, 3 mg/kg
# [4] = Octanol-water partition coefficient, logD of the compound at pH 7.4; assay type: physicochemical
# [5] = Clearance in rat hepatocyte at 2 uM measured upto 120 mins by LC-MS/MS analysis; assay type: ADME, cell-based; details: hepatocytes
# [6] = AUC (0-infinity) in rat plasma at 3 mg/kg,po; assay type: ADME, organism-based; parameters: dose 3 mg/kg, route po; details: in vivo
# [7] = Clearance in human hepatocyte at 2 uM measured upto 120 mins by LC-MS/MS analysis; assay type: ADME, cell-based; details: hepatocytes
# [8] = Clearance in human liver microsomes at 1 uM measured upto 30 mins in presence of NADPH by LC-MS/MS analysis; assay type: ADME, Microsome
# [9] = Induction of CYP3A4 mRNA expression level in human hepatocytes at 10 uM incubated for 24 hrs by q-PCR analysis; assay type: ADME, cell-based, Hepatocyte
# [10] = target: hERG (Homo sapiens, UniProt Q12809); assay: (§1) Inhibition of hERG stably expressed in CHO cells by whole-cell voltage-clamp assay; assay type: toxicity, cell-based; details: human, CHO cells stably expressing hERG
# [11] = target: Voltage-gated inwardly rectifying potassium channel KCNH2 (Homo sapiens, UniProt Q12809); assay: as §1; assay type: toxicity, cell-based
# Chain of Voltage-gated inwardly rectifying potassium channel KCNH2 (Q12809 whole entry): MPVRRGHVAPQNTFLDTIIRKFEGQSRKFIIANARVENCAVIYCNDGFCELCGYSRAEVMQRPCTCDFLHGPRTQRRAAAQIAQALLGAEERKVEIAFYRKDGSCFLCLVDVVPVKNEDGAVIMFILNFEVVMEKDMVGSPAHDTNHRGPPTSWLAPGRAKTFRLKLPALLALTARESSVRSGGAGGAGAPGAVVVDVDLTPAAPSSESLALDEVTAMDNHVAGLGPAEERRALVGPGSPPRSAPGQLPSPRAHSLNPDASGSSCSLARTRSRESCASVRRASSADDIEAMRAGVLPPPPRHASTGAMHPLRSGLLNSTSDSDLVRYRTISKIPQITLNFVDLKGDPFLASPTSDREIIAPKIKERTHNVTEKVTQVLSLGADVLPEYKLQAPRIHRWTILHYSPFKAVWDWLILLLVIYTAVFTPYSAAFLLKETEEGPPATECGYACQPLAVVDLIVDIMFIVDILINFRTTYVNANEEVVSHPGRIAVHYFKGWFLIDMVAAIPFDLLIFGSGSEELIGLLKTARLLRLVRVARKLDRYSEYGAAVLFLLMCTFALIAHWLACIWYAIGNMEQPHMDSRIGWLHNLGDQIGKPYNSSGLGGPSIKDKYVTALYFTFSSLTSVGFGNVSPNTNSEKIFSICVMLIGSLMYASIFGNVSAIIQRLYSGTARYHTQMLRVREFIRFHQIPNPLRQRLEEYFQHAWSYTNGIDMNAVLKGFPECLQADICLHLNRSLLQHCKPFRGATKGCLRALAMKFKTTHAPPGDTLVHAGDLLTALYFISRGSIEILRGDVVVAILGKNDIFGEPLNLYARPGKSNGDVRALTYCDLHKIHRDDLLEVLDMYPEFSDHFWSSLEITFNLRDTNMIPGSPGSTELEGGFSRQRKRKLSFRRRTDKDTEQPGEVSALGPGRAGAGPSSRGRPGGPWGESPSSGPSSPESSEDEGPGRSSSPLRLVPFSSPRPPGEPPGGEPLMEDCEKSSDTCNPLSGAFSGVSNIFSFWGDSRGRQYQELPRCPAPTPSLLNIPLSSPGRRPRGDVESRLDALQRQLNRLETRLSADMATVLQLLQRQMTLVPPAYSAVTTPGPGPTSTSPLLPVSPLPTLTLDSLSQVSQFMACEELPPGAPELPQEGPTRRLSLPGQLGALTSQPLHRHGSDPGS
# Chain of hERG (Q12809 whole entry): as above
SMILES,EC50 [1],CLhep predicted at 1 µM [8],Activity [9],CC50 [2],other results
CCOC(=O)C1=C(CN2C[C@H]3CN(C)C(=O)N3C[C@H]2C(=O)O)NC(c2nccs2)=N[C@H]1c1cccc(F)c1Cl,150 nM,,,> 100000 nM,
COC(=O)C1=C(CN2CCN3C(=O)OC[C@H]3C2)NC(c2nccs2)=N[C@H]1c1ccc(F)cc1Cl,23 nM,,,76000 nM,
COC(=O)C1=C(CN2CCN3C(=O)OCCC3C2)NC(c2nccs2)=N[C@H]1c1ccc(F)cc1Cl (some centres not stated),100 nM,,,62000 nM,
COC(=O)C1=C(CN2CCN3C(=O)N([C@H]4C[C@H](C(=O)O)C4)C[C@@H]3C2)NC(c2nccs2)=N[C@H]1c1ccc(F)cc1Cl,34 nM,,,43000 nM,
"CCOC(=O)C1=C(CN2CCN3C(=O)N(c4ccccc4C(=O)O)C[C@@H]3C2)NC(c2nccs2)=N[C@H]1c1ccc(F)cc1Cl (single isomer, unassigned)",30 nM,4.4 mL/min/kg,,,
COC(=O)C1=C(CN2CCN3C(=O)NC[C@@H]3C2)NC(c2nccs2)=N[C@H]1c1ccc(F)cc1Cl,2 nM,,17%,52000 nM,
COC(=O)C1=C(CN2CCN3C(=O)COCC3C2)NC(c2nccs2)=N[C@H]1c1ccc(F)cc1Cl (some centres not stated),55 nM,,,68000 nM,
CCOC(=O)C1=C(CN2C[C@H]3CN(C4CC4)C(=O)N3C[C@H]2C(=O)O)NC(c2nccs2)=N[C@H]1c1ccc(F)cc1Cl,145 nM,1.7 mL/min/kg,,> 100000 nM,
COC(=O)C1=C(CN2CCN3C(=O)N([C@H]4C[C@@H](C(=O)O)C4)C[C@@H]3C2)NC(c2nccs2)=N[C@H]1c1ccc(F)cc1Cl,30 nM,0.4 mL/min/kg,,> 100000 nM,
CCOC(=O)C1=C(CN2C[C@H]3CN(C(C)(C)C)C(=O)N3C[C@H]2C(=O)O)NC(c2nccs2)=N[C@H]1c1ccc(F)cc1Cl,62 nM,,,> 100000 nM,
COC(=O)C1=C(CN2CCc3c([nH][nH]c3=O)C2)NC(c2nccs2)=N[C@H]1c1ccc(F)cc1Cl,750 nM,,13%,> 100000 nM,
COC(=O)C1=C(CN2CCN3C(=O)N(C(C)(C)CC(=O)O)C[C@@H]3C2)NC(c2nccs2)=N[C@H]1c1ccc(F)cc1Cl,30 nM,2.5 mL/min/kg,,> 100000 nM,
COC(=O)C1=C(CN2CCN3C(=O)OC[C@@H]3C2)NC(c2nccs2)=N[C@H]1c1ccc(F)cc1Cl,3 nM,,70%,79000 nM,
COC(=O)C1=C(CN2CCN3C(=O)CC[C@H]3C2)NC(c2nccs2)=N[C@H]1c1ccc(F)cc1Cl,160 nM,,,71000 nM,
COC(=O)C1=C(CN2CCN(C(C)=O)CC2)NC(c2nccs2)=N[C@H]1c1ccc(F)cc1Cl,50 nM,,,> 100000 nM,
CCOC(=O)C1=C(CN2CCN3C(=O)N(CC(C)C(=O)O)C[C@@H]3C2)NC(c2nccs2)=N[C@H]1c1ccc(F)cc1Cl (some centres not stated),16 nM,2.7 mL/min/kg,2.4%,> 100000 nM,IC20 [10]: > 10000 nM; IC50 [11]: > 20000 nM
CCOC(=O)C1=C(CN2CCN3C(=O)N(C(C)(C)C(=O)O)C[C@@H]3C2)NC(c2nccs2)=N[C@H]1c1ccc(F)cc1Cl,200 nM,1.6 mL/min/kg,,61000 nM,
COC(=O)C1=C(CN2CCN3CCCC3C2)NC(c2nccs2)=N[C@H]1c1ccc(F)cc1Cl (some centres not stated),> 1000 nM,,,,
COC(=O)C1=C(CN2CCN3C(=O)NC[C@H]3C2)NC(c2nccs2)=N[C@H]1c1ccc(F)cc1Cl,150 nM,,,89000 nM,

# The remaining molecules from weak to strong by EC50 [1], led by results:
EC50 [1],CLhep predicted at 1 µM [8],Activity [9],SMILES,CC50 [2],other results
16 nM,,,COC(=O)C1=C(CN2CCN3C(=O)N(CC(C)(C)C(=O)O)C[C@@H]3C2)NC(c2nccs2)=N[C@H]1c1cccc(F)c1C,> 100000 nM,logD [4]: 1.26
14 nM,,,COC(=O)C1=C(CN2CCN3C(=O)N(CC(C)(C)C(=O)O)C[C@@H]3C2)NC(c2nccs2)=N[C@H]1c1cccc(F)c1Cl,> 100000 nM,logD [4]: 1.21
14 nM,,44%,COC(=O)C1=C(CN2CCN3C(=O)CC[C@@H]3C2)NC(c2nccs2)=N[C@H]1c1ccc(F)cc1Cl,45000 nM,
11 nM,2.3 mL/min/kg,2.2%,COC(=O)C1=C(CN2CCN3C(=O)N(CC4(C(=O)O)CCC4)C[C@@H]3C2)NC(c2nccs2)=N[C@H]1c1ccc(F)cc1Cl,> 100000 nM,IC20 [10]: 7200 nM; IC50 [11]: > 20000 nM
11 nM,0.3 mL/min/kg,,COC(=O)C1=C(CN2CCN3C(=O)N(CC4(C(=O)O)CC4)C[C@@H]3C2)NC(c2nccs2)=N[C@H]1c1ccc(F)cc1Cl,> 100000 nM,IC20 [10]: 2300 nM; IC50 [11]: 7800 nM
9 nM,5.2 mL/min/kg,,COC(=O)C1=C(CN2CCN3C(=O)N([C@H]4CC[C@H](C(=O)O)CC4)C[C@@H]3C2)NC(c2nccs2)=N[C@H]1c1ccc(F)cc1Cl,43000 nM,
9 nM,8.1 mL/min/kg,0%,COC(=O)C1=C(CN2CCN3C(=O)N(C4CCC(C(=O)O)CC4)C[C@@H]3C2)NC(c2nccs2)=N[C@H]1c1ccc(F)cc1Cl (some centres not stated),70000 nM,IC20 [10]: > 10000 nM; IC50 [11]: > 20000 nM
8 nM,4.6 mL/min/kg,0%,COC(=O)C1=C(CN2CCN3C(=O)N(CCC(C)(C)C(=O)O)C[C@@H]3C2)NC(c2nccs2)=N[C@H]1c1ccc(F)cc1Cl,> 100000 nM,
7 nM,0.3 mL/min/kg,,"COC(=O)C1=C(CN2CCN3C(=O)N(c4cccc(C(=O)O)c4)C[C@@H]3C2)NC(c2nccs2)=N[C@H]1c1ccc(F)cc1Cl (single isomer, unassigned)",33000 nM,
6 nM,,,COC(=O)C1=C(CN2CCN3C(=O)N(CC(C)(C)C(=O)O)C[C@@H]3C2)NC(c2nccs2)=N[C@H]1c1ccc(F)c(F)c1C,94000 nM,F [3]: 14%; logD [4]: 1.51; CLhep predicted at 2 µM [5]: 16 mL/min/kg; AUC [6]: 43 ng·h/mL; CLhep predicted at 2 µM [7]: 2.4 mL/min/kg
3 nM,,,CCOC(=O)C1=C(CN2CCN3C(=O)N(CC(C)(C)C(=O)O)C[C@@H]3C2)NC(c2nccs2)=N[C@H]1c1ccc(F)c(F)c1C,> 100000 nM,F [3]: 7.4%; logD [4]: 2; AUC [6]: 43 ng·h/mL
3 nM,,110%,COC(=O)C1=C(CN2CCOC[C@H]2C(=O)O)N=C(c2nccs2)N[C@H]1c1ccc(F)cc1Cl,> 100000 nM,
2 nM,2.7 mL/min/kg,6%,CCOC(=O)C1=C(CN2C[C@H]3CN(C4CC4)C(=O)N3C[C@@H]2C(=O)O)NC(c2nccs2)=N[C@H]1c1ccc(F)cc1Cl,> 100000 nM,IC20 [10]: > 10000 nM; IC50 [11]: > 20000 nM
2 nM,,,"CCOC(=O)C1=C(CN2CCN3C(=O)N(c4ccc(C(=O)O)cc4)C[C@@H]3C2)NC(c2nccs2)=N[C@H]1c1ccc(F)cc1Cl (single isomer, unassigned)",28000 nM,
2 nM,0.43 mL/min/kg,,"COC(=O)C1=C(CN2CCN3C(=O)N(c4ccc(C(=O)O)cc4)C[C@@H]3C2)NC(c2nccs2)=N[C@H]1c1ccc(F)cc1Cl (single isomer, unassigned)",,IC20 [10]: 4000 nM; IC50 [11]: > 10000 nM
2 nM,5.8 mL/min/kg,1.7%,CCOC(=O)C1=C(CN2C[C@H]3CN(C)C(=O)N3C[C@@H]2C(=O)O)NC(c2nccs2)=N[C@H]1c1cccc(F)c1Cl,> 100000 nM,IC20 [10]: > 10000 nM; IC50 [11]: > 20000 nM
